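Protocol summary: plate cells (96-well), add compound at 5 concentrations, incubate 48 h, interpolate endpoints linearly. GI50 = concentration required for 50% inhibition of growth. TGI denotes the concentration required for complete inhibition of growth.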
Legend:
Assay in all cases: NCI anticancer screen, dose series, 48 h
SK-MEL-5 melanoma = tested on: SK-MEL-5 melanoma
SK-MEL-28 melanoma = tested on: SK-MEL-28 melanoma
TK-10 renal = tested on: TK-10 renal
SNB-19 CNS = tested on: SNB-19 CNS
HL-60(TB) leukemia = tested on: HL-60(TB) leukemia
SK-MEL-2 melanoma = tested on: SK-MEL-2 melanoma
SF-295 CNS = tested on: SF-295 CNS
NCI-H460 lung = tested on: NCI-H460 lung
SR leukemia = tested on: SR leukemia
OVCAR-8 ovarian = tested on: OVCAR-8 ovarian

Row | SMILES | TGI (SK-MEL-5 melanoma) [µM] | TGI (SK-MEL-28 melanoma) [µM] | TGI (TK-10 renal) [µM] | TGI (SNB-19 CNS) [µM] | TGI (HL-60(TB) leukemia) [µM] | TGI (SK-MEL-2 melanoma) [µM] | TGI (SF-295 CNS) [µM] | TGI (NCI-H460 lung) [µM] | TGI (SR leukemia) [µM] | TGI (OVCAR-8 ovarian) [µM] | GI50 (SK-MEL-5 melanoma) [µM] | GI50 (SK-MEL-28 melanoma) [µM] | GI50 (TK-10 renal) [µM] | GI50 (OVCAR-8 ovarian) [µM] | GI50 (SNB-19 CNS) [µM] | GI50 (HL-60(TB) leukemia) [µM] | GI50 (SK-MEL-2 melanoma) [µM] | GI50 (SF-295 CNS) [µM] | GI50 (NCI-H460 lung) [µM] | GI50 (SR leukemia) [µM]
1 | Cc1c(N=Nc2ccccc2)c(C)n(C2OC(CO)C(O)C(O)C2O)c(=S)c1C#N (stereo unspecified) | 25 | > 100 | > 100 | 96.2 | > 100 | 90.2 | > 100 | > 100 | 87.7 | – | – | – | – | – | – | – | – | – | – | –
2 | CC(=O)Nc1ccc2[nH]c(C(=O)N3CC(CCl)c4c3cc([N+](=O)[O-])c3ccccc43)cc2c1 (stereo unspecified) | > 100 | > 100 | > 100 | > 100 | 23 | > 69.5 | > 100 | > 100 | 5.83 | > 100 | – | – | – | – | – | – | – | – | – | –
3 | CC(C)(C)c1cc(OCc2nn3c(Cc4ccccc4)nnc3s2)c(Cl)cc1OCc1nn2c(Cc3ccccc3)nnc2s1 | 26.6 | > 100 | > 100 | > 100 | 97.9 | > 100 | > 100 | > 100 | > 100 | > 100 | – | – | – | – | – | – | – | – | – | –
4 | O=C1C(Cl)=C(N(C(=O)c2ccccc2)C(=O)c2ccccc2)C(=O)c2ccccc21 | 12.4 | 40.2 | 37.8 | > 100 | 3.15 | 43.9 | > 100 | 28.5 | 81.2 | > 100 | – | – | – | – | – | – | – | – | – | –
5 | CC(=O)Oc1c(-c2ccccc2)sc2ccccc12 | 44.5 | 53.1 | 65.1 | > 100 | 39.6 | 31.4 | 40.3 | 27.7 | 29.4 | > 100 | – | – | – | – | – | – | – | – | – | –
6 | Cc1cc(S(=O)(=O)Nc2nnc3cnc4ccccc4n23)c(S)cc1Cl | > 85.9 | > 100 | > 100 | > 100 | > 100 | > 100 | > 100 | > 100 | > 100 | > 100 | – | – | – | – | – | – | – | – | – | –
7 | COC1=CC(=O)CC(C)C12Oc1c(Cl)c(OC)cc(OC)c1C2=O (stereo unspecified) | > 100 | > 100 | > 100 | > 100 | > 44.1 | > 100 | 57.3 | > 100 | > 28.2 | > 100 | – | – | – | – | – | – | – | – | – | –
8 | OCCN(/N=C\c1ccc2ccccc2c1)C1=NCCN1 | 33.1 | 35.3 | > 100 | > 100 | 43.6 | 42.6 | > 100 | > 100 | 55.9 | > 100 | – | – | – | – | – | – | – | – | – | –
9 | C=C1C(O)C[C@H](OC(C)=O)[C@]2(C)C1C(OC(C)=O)[C@]1(C(C)(C)O)CC(O)C(C)=C1[C@@H](OC(=O)c1ccccc1)C2OC(C)=O (stereo partly specified) | > 10 | > 10 | > 10 | > 10 | > 10 | > 10 | > 10 | > 10 | > 10 | > 10 | – | – | – | – | – | – | – | – | – | –
10 | COc1cc2c(c(O)c1OC)CC1CCC(=O)N1C2c1cccc2ccccc12 (stereo unspecified) | 26.2 | 52.2 | > 100 | 45 | > 100 | 34.9 | 41.1 | 61.1 | > 100 | > 100 | – | – | – | – | – | – | – | – | – | –
11 | COc1ccc([C@@H]2CC(=O)N2)cc1 | > 100 | > 100 | > 100 | > 100 | > 100 | > 100 | > 100 | > 100 | > 100 | > 100 | – | – | – | – | – | – | – | – | – | –
12 | COC1=CC2(CC(OC)=C1OC)OC21COc2ccccc2C1=O (stereo unspecified) | > 100 | > 100 | > 100 | > 100 | > 100 | > 100 | > 100 | > 100 | 89.7 | > 100 | – | – | – | – | – | – | – | – | – | –
13 | COc1ccccc1NC(=O)CC(=O)N1N=C(N2c3ccccc3Sc3ccccc32)CC1c1ccccc1 (stereo unspecified) | > 100 | > 100 | > 100 | > 100 | > 100 | > 100 | > 100 | > 100 | > 100 | > 100 | – | – | – | – | – | – | – | – | – | –
14 | Nc1nc(Cl)cc(NC2(CO)CCC2)n1 | > 100 | > 100 | > 100 | – | > 100 | > 100 | > 100 | > 100 | > 100 | > 100 | – | – | – | – | – | – | – | – | – | –
15 | Cc1cc2c(C)n(Cc3ccccc3Cl)nc2c(C(=O)O)c1C | – | > 100 | > 100 | > 100 | > 100 | > 100 | > 100 | > 100 | > 100 | > 100 | – | – | – | – | – | – | – | – | – | –
16 | Cc1n[nH]c(=O)n1/N=C\c1ccccc1 | > 100 | > 100 | > 100 | – | > 100 | > 100 | > 100 | > 100 | > 100 | > 100 | – | – | – | – | – | – | – | – | – | –
17 | C/C=C1\CN(C(=O)OC(C)(C)C)C1C(=O)OC(C)(C)C (stereo unspecified) | > 100 | > 100 | > 100 | > 100 | > 100 | > 100 | > 100 | > 100 | > 100 | > 100 | – | – | – | – | – | – | – | – | – | –
18 | CCOC(=O)Nc1ccc2c(c1)c(CCCCCCc1nc3ccccc3c3ccc(NC(=O)OCC)cc13)nc1ccccc12 | > 100 | > 100 | 84.8 | > 100 | > 100 | 71.2 | > 100 | > 100 | > 100 | 61.3 | – | – | – | – | – | – | – | – | – | –
19 | COc1ccc2c3c([nH]c2c1)CCN(CCCC(=O)c1ccc(F)cc1)C3 | 26 | 29.3 | 29.1 | 28.2 | 33.2 | 32 | 29.4 | 36.4 | 36.6 | 29.1 | – | – | – | – | – | – | – | – | – | –
20 | Cc1cc(=O)n2nc(CCl)sc2n1 | 23 | 28.6 | 23 | 39 | 38.2 | 28.7 | 42.9 | 29.5 | 87 | 35.5 | – | – | – | – | – | – | – | – | – | –
21 | COc1cc(OC)cc(-c2n/c(=C\c3c(O)[nH]c4ccc(OC)cc34)cc3c2=Nc2ccccc2-3)c1 | 25.2 | 33.4 | 9.86 | 27.7 | 36.2 | 37.3 | 34 | 5.62 | 10.6 | 32.4 | 12.1 | 13.5 | 3.82 | 12.1 | 5.82 | 16.6 | 20.8 | 14.4 | 2.36 | 2.76
